In one series the test system is treated patients. The settings on record: dose limiting toxicity; cited from earlier work.
Series [1] relates to murine breast cancer cells EMT-6. Description: In vitro cell viability of EMT-6 cells after 48 hours incubation, viable cells counted with a hemocytometer. Format: cell-based. The settings on record: 1 μM, 50 μM and 100 μM. Here is the method: A murine breast cancer cells EMT-6 (0.5*10^6 cells/plate) were plated and grown in Dulbecco's Modified Eagle Medium (DMEM) supplemented with 10% FBS, 2% L-Glutamine Solution (200 mM), 2% Pen-Strep Solution (Biological Industries), and […] D-Glucose under regular growth conditions: 5% CO2, and 37.6° C.
After the incubation time, cells were washed with PBS (3 times), harvested using Trypsin-EDTA solution (Biological Industries), and the number of viable cells was counted under microscope using a microscope counting chamber (Hemocytometer).

Molecules are shown by their SMILES.

As for `N.N.[Cl][Pt][Cl]` [Cisplatin, cis-diamminedichloroplatinum(II)], the “sensory neuropathy, share of treated patients” value with treated patients is recorded as “more than 20%”. Moreover, the “toxicity to the cells / effect on cell number (FIG. 1)” value in series [1] is “dose-dependent reduction in the cells”.
